Where two headings read alike, the source gives them in different places.
Columns and labels:
[1] = test system: diamondback moth; test: Insecticidal test on diamondback moth; format: in vivo; details: Plutella xylostella, 144 h
Summary of the method: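 Cabbage leaves were dipped in a wettable-powder dilution at 500 ppm active ingredient, air-dried and given 10 second-instar larvae per cup. Mortality was counted after 6 days at 25 °C, in a single series.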

[2] = test system: cotton bollworm; test: Insecticidal test on cotton bollworm; format: in vivo; details: Helicoverpa armigera, 144 h
Description: A wettable powder prepared in accordance with Formulation Example 2 was diluted with water to a concentration of an active ingredient of 500 ppm. Cabbage leaves were dipped in this solution and dried in air and then put in a plastic cup having a capacity of 60 mL. Five hatched larvae of cotton bollworm were released in the cup, and the cup was lidded and placed in a thermostatic chamber at 25° C. for 6 days, and the number of dead larvae were assessed for calculation of the mortality by Equation 2. The test was carried out by two series system.

[3] = test system: brown rice planthopper; test: Insecticidal test on brown rice planthopper; format: in vivo; details: 144 h
Summary of the method: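 Rice sprouts dipped in 500 ppm active ingredient (water-diluted wettable powder), then exposed to ten third-instar brown rice planthopper larvae. Held at 25° C. for 6 days; dead larvae counted for mortality, single series.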

[4] = test system: cotton aphid; test: Insecticidal test on cotton aphid (seedling dip); format: in vivo; details: Aphis gossypii, in Cucumis sativus, 72 h
Summary of the method: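 Cucumber seedlings carrying cotton aphid larvae were dipped in a water-diluted wettable powder at 500 ppm active ingredient, then air-dried. After 3 days at 25° C. live insects were counted and mortality calculated; single series.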

[5] = test system: two-spotted spider mites; test: Miticidal test on two-spotted spider mites (seedling dip); format: in vivo, Tetranvchus urticae; details: Glycine max, 312 h, read-out: protective value
Summary of the method: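 Soybean seedlings carrying adult mites were dipped in wettable-powder dilution at 500 ppm active ingredient, air-dried, and held at 25° C for 13 days. Live mites were counted and a protective value calculated.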

[6] = test system: cotton aphid; test: Insecticidal test on cotton aphid (root zone irrigation); format: in vivo; details: Aphis gossypii, in Cucumis sativus, 72 h
Description: A wettable powder prepared in accordance with Formulation Example 2 was diluted with water to a concentration of an active ingredient of 100 ppm. The root zone of cucumber seedlings which had been inoculated with larvae of cotton aphid was irrigated with 5 mL of the solution. The treated cucumber seedlings were placed in a thermostatic chamber at 25° C. for 3 days, and the live insects were counted for calculation of the mortality by Equation 2. The test was carried out by one series system.

[7] = test system: southern root-knot nematodes; test: Nematicidal test on root-knot nematode; format: in vivo; details: Meloidogyne incognita, 120 h
Description: A compound to be tested was dissolved in N,N-dimethylformamide containing 1 mass % of tween 20, and this solution was diluted with distilled water to a concentration of an active ingredient of 20 ppm. 0.5 mL of the solution was mixed with 0.5 mL of a suspension containing about 30 second-instar larvaes of southern root-knot nematodes, and the mixture was placed in a thermostatic chamber at 25° C. for 5 days. The number of dead nematodes and the number of live nematodes were assessed by a microscope for calculation of the mortality by Equation 3. The test was carried out by two series system.

[8] = 500 ppm active ingredient, soybean seedlings with imago mites dipped, 25° C., 13 days

Row | melting point [°C] | Compound | mortality at 500 ppm ([1]; in Brassica oleracea) [%] | mortality at 500 ppm ([2]; in Brassica oleracea) [%] | mortality at 500 ppm [3] [%] | mortality at 500 ppm [4] [%] | pest or weed control at 500 ppm [5, 8] [%] | mortality at 20 ppm [7] [%] | further results
1 | – | CC(=O)Nc1cc(OCC(F)(F)C(F)(F)F)nn1-c1cc([S+]([O-])CC(F)(F)F)c(C)cc1F (stereo not shown) [1-18, 5-acetylamino-1-{2-fluoro-4-methyl-5-(2,2,2-trifluoroethylsulfinyl)phenyl}-3-(2,2,3,3,3-pentafluoropropoxy)pyrazole] | ≥ 90 | ≥ 90 | ≥ 90 | ≥ 90 | ≥ 90 | – | mortality at 100 ppm [6]: ≥ 90%
2 | – | Cc1cc(F)c(-n2nc(OCC(F)(F)C(F)(F)F)cc2C)cc1[S+]([O-])CC(F)(F)F (stereo not shown) [1-92, 1-{2-fluoro-4-methyl-5-(2,2,2-trifluoroethylsulfinyl)phenyl}-5-methyl-3-(2,2,3,3,3-pentafluoropropoxy)pyrazole] | – | – | ≥ 90 | ≥ 90 | ≥ 90 | ≥ 90 | –
3 | 81 to 84 | CCOC(=O)c1cc(OCC(F)(F)C(F)(F)F)nn1-c1cc(SCC(F)(F)F)c(C)cc1F [1-143, ethyl 1-{2-fluoro-4-methyl-5-(2,2,2-trifluoroethylthio)phenyl}-3-(2,2,3,3,3-pentafluoropropoxy)pyrazole-5-carboxylate] | – | – | – | – | – | – | –
4 | – | C#CCNc1cc(OCC(F)(F)C(F)(F)F)nn1-c1cc([S+]([O-])CC(F)(F)F)c(C)cc1F (stereo not shown) [1-162, 1-{2-fluoro-4-methyl-5-(2,2,2-trifluoroethylsulfinyl)phenyl}-3-(2,2,3,3,3-pentafluoropropoxy)-5-(2-propynylamino)pyrazole] | ≥ 90 | ≥ 90 | – | ≥ 90 | ≥ 90 | ≥ 90 | –
5 | – | CNc1cc(OC(F)(F)C(F)OC(F)(F)C(F)(F)C(F)(F)F)nn1-c1cc([S+]([O-])CC(F)(F)F)c(C)cc1F (stereo not shown) [1-348, 1-{2-fluoro-4-methyl-5-(2,2,2-trifluoroethylsulfinyl)phenyl}-5-methylamino-3-{1,1,2-trifluoro-2-(heptafluoropropoxy)ethoxy}pyrazole] | – | – | – | – | – | ≥ 90 | mortality at 500 ppm ([1]; 500 ppm active ingredient, cabbage leaves dipped, second-instar larvae, 25° C., 6 days, read-out: mortality): ≥ 90%; mortality at 500 ppm ([2]; 500 ppm active ingredient, cabbage leaves dipped, hatched larvae, 25° C., 6 days, read-out: mortality): ≥ 90%; pest or weed control at 500 ppm [5]: ≥ 90%
6 | 57 to 58 | Cc1cc(F)c(-n2cc(C#N)c(OC(F)(F)C(F)OC(F)(F)F)n2)cc1SCC(F)(F)F (stereo not shown) [1-1587, 4-cyano-1-{2-fluoro-4-methyl-5-(2,2,2-trifluoroethylthio)phenyl}-3-{1,1,2-trifluoro-2-(trifluoromethoxy)ethoxy}pyrazole] | – | – | – | – | ≥ 90 | – | –
